From US6391900B1, “Cytotoxic tris(oxazole)-containing macrolides” (Instituto Biomar S.A., priority 1998, dated 2002) come the findings set out here.

The subject of assay [1] is A-549 (monolayer culture of a human lung carcinoma). As to the kind of experiment: in vitro cytotoxic assay, A-549 cells. In kind it is cell-based. The settings on record: A549, 72 h, three days of incubation, Crystal Violet staining, approximate IC50. The procedure: (§1) Cells were maintained in logarithmic phase of growth in Eagle's Minimum Essential Medium, with Earle's Balanced Salts, with 2.0 mM L-glutamine, with non-essential amino acids, without sodium bicarbonate EMEM/neaa); supplemented with 10% Fetal Calf Serum (FCS), 10^−2 M sodium bicarbonate and 0.1 g/l penicillin-G+streptomycin sulfate.
(§2) A screening procedure has been carried out to determine and compare the antitumor activity of these compounds, using an adapted form of the method described by Bergeron et al. (Reference 5). The antitumor cells employed were P-388 (suspension culture of a lymphoid neoplasm from DBA/2 mouse), A-549 (monolayer culture of a human lung carcinoma), HT-29 (monolayer culture of a human colon carcinoma) and MEL-28 (monolayer culture of a human melanoma).
(§3) A-549, HT-29 and MEL-28 cells were seeded into 16 mm wells at 2×10^4 cells per well in 1 ml aliquots of MEM 10FCS containing the indicated concentration of drug. A separate set of cultures without drug was seeded as control growth to ensure that cells remained in exponential phase of growth. All determinations were carried out in duplicate. After three days of incubation at 37° C., 10% CO2 in a 98% humid atmosphere, the wells were stained with 0.1% Crystal Violet. An approximately IC50 was determined by comparing the growth in wells with drug to the growth in wells control.

For assay [2], the system named is solid tumors like A-549, HT-29 and MEL-28. As to the kind of experiment: in vitro antitumor selectivity across the cytotoxicity panel. Particulars: solid tumor lines A-549, HT-29, MEL-28 compared with P-388. The format is cell-based, human. As to the method:
as §2
(§4) […] cells were seeded into 16 mm wells at 1×10^4 sells per well in 1 ml aliquots of MEM SFCS containing the indicated concentration of drug. A separate set of cultures without drug was seeded as control growth to ensure that cells remained in exponential phase of growth. All determinations were carried out in duplicate. After three days of incubation at 37° C., 10% CO2 in a 98% humid atmosphere, an approximately IC50 was determined by comparing the growth in wells with drug to the growth in wells control.
A-549, HT-29 and MEL-28 cells were seeded into 16 mm wells at 2×10^4 cells per well in 1 ml aliquots of MEM 10FCS containing the indicated concentration of drug. A separate set of cultures without drug was seeded as control growth to ensure that cells remained in exponential phase of growth. […] An approximately IC50 was determined by comparing the growth in wells with drug to the growth in wells control.

In assay [3] the test system is P-388 (suspension culture of a lymphoid neoplasm from DBA/2 mouse). In words: in vitro cytotoxic assay, P-388 cells. The format is cell-based. The settings on record: P388, 72 h, three days of incubation, approximate IC50 by growth vs control wells. As to the method:
as §1, §2, §4

In assay [4] the test system is HT-29 (monolayer culture of a human colon carcinoma). In words: in vitro cytotoxic assay, HT-29 cells. In kind it is cell-based. The settings on record: 72 h, three days of incubation, Crystal Violet staining, approximate IC50. As to the method: as §1, §2, §3
Assay [5] concerns MEL-28 (monolayer culture of a human melanoma). In words: in vitro cytotoxic assay, MEL-28 cells. The format is cell-based. Particulars: SK-MEL-28, 72 h, three days of incubation, Crystal Violet staining, approximate IC50. As to the method: as §1, §2, §3

For orientation: IC50 means the concentration that gives 50% inhibition. A higher IC50 goes with a need for much substance. Regarding `COC(CC1OC(=O)CC(OC(N)=O)CC(C)CC(O)C(C)C(OC)c2coc(n2)-c2coc(n2)-c2coc(n2)/C=C/CC(OC)C1C)C(C)CCC(=O)C(C)C(OC)C(C)CC=O` (centres unmarked) [TH-2], the IC50 in assay [1] turned out to be 2 nM; in assay [3], 11 nM; in assay [4] it was 2 nM; in assay [5] it was 2 nM. For the same compound, in assay [2], the “in vitro antitumor selectivity for solid tumors” value is reported as “in vitro antitumor selectivity for solid timors”.
